Patent US8779142B2, “Azabicyclo compound and salt thereof” (Taiho Pharmaceutical Co., Ltd., priority 2009, dated 2014)

Legend:
[1] = molecular target: human HSP90 alpha protein (HSP90 N-terminal protein, amino acids 2-236) (Homo sapiens (Human), UniProt P07900); test: Measurement of HSP90-binding activity (AlphaScreen competitive assay, biotin-labeled geldanamycin); conditions: concentration inhibiting binding of biotin-labeled geldanamycin (40 nM) to purified HSP90 to 50% of control; read-out: HSP-binding activity IC50
SK-BR-3 cells = test: Measurement of cell growth inhibition (crystal violet staining method); assay type: cell-based; conditions: breast cancer SK-BR-3 cells, 72 hr culture with test substance

SMILES | IC50 [1] [nM] | IC50 (SK-BR-3 cells; Homo sapiens) [nM] | IC50 (SK-BR-3 cells) [nM]
CC(C)c1nn(-c2ccc(C(N)=O)c(N[C@H]3CC[C@H](O)CC3)c2)c2nccc(-c3cnc4[nH]ccc4c3)c12 [Example 13, 2-(Trans-4-hydroxycyclohexylamino)-4-{3-isopropyl-4-(1H-pyrrolo[2,3-b]pyridin-5-yl)-1H-pyrazolo[3,4-b]pyridin-1-yl}benzamide] | 430 | 150 | 
CC(C)c1nn(-c2ccc(C(N)=O)c(N[C@H]3CC[C@H](O)CC3)c2)c2nccc(-n3cnc(-c4ccccc4)c3)c12 [Example 37, 2-(Trans-4-hydroxycyclohexylamino)-4-{3-isopropyl-4-(4-phenyl-1H-imidazol-1-yl)-1H-pyrazolo[3,4-b]pyridin-1-yl}benzamide] | 250 | 100 | 
Cc1cc(C(N)=O)ccc1-n1nc(C(F)(F)F)c2c(-n3cnc(-c4cnn(C)c4)c3)ccnc21 [Example 154, 3-Methyl-4-{4-(4-(1-methyl-1H-pyrazol-4-yl)-1H-imidazol-1-yl)-3-(trifluoromethyl)-1H-pyrazolo[3,4-b]pyridin-1-yl}benzamide] | 140 | 120 | 
CC(C)Nc1cc(C(N)=O)ccc1-n1nc(C(F)(F)F)c2c(-n3cnc(-c4cccnc4)c3)ccnc21 [Example 181, 3-(Isopropylamino)-4-{4-(4-(pyridin-3-yl)-1H-imidazol-1-yl)-3-(trifluoromethyl)-1H-pyrazolo[3,4-b]pyridin-1-yl}benzamide] | 140 | 120 | 
COc1cccc2c1ccn2-c1ccc(C(N)=O)c(NC2CCC(O)CC2)c1 (stereo not shown) [Comparative Example 2, reference compound] | > 100000 | > 10000 | 
CCn1cc(-c2cn(-c3ccnc4c3c(C(F)(F)F)nn4-c3ccc(C(N)=O)cc3N)cn2)cn1 [Example 184, 3-Amino-4-{4-(4-(1-ethyl-1H-pyrazol-4-yl)-1H-imidazol-1-yl)-3-(trifluoromethyl)-1H-pyrazolo[3,4-b]pyridin-1-yl}benzamide] | 230 | 410 | 
NC(=O)c1ccc(-n2nc(C(F)(F)F)c3c(-n4cnc(-c5cccnc5)c4)ccnc32)c(N)c1 [Example 177, 3-Amino-4-{4-(4-(pyridin-3-yl)-1H-imidazol-1-yl)-3-(trifluoromethyl)-1H-pyrazolo[3,4-b]pyridin-1-yl}benzamide] | 270 | 390 | 
CCNc1cc(C(N)=O)ccc1-n1nc(C(F)(F)F)c2c(-n3cnc(-c4cccnc4)c3)ccnc21 [Example 180, 3-(Ethylamino)-4-{4-(4-(pyridin-3-yl)-1H-imidazol-1-yl)-3-(trifluoromethyl)-1H-pyrazolo[3,4-b]pyridin-1-yl}benzamide] | 190 | 140 | 
CC(C)c1nn(-c2ccc(C(N)=O)c(N[C@H]3CC[C@H](O)CC3)c2)c2nccc(-c3cccnc3)c12 [Example 7, 2-(Trans-4-hydroxycyclohexylamino)-4-{3-isopropyl-4-(pyridin-3-yl)-1H-pyrazolo[3,4-b]pyridin-1-yl}benzamide] | 340 | 230 | 
CCNc1cc(-n2nc(C(F)(F)F)c3c(-n4cnc(-c5cnn(C)c5)c4)ccnc32)ccc1C(N)=O [Example 161, 2-(Ethylamino)-4-{4-(4-(1-methyl-1H-pyrazol-4-yl)-1H-imidazol-1-yl)-3-(trifluoromethyl)-1H-pyrazolo[3,4-b]pyridin-1-yl}benzamide] | 170 | 60 | 
COc1ccc(-c2cn(-c3ccnc4c3c(C(C)C)nn4-c3ccc(C(N)=O)c(N(O)C4CCCCC4)c3)cn2)cc1 [Example 83, 2-(Hydroxycyclohexylamino)-4-{3-isopropyl-4-(4-(4-methoxyphenyl)-1H-imidazol-1-yl)-1H-pyrazolo[3,4-b]pyridin-1-yl}benzamide] | 400 | 110 | 
CC(C)c1nn(-c2ccc(C(N)=O)c(NC3CCN(C(=O)CN)CC3)c2)c2nccc(-c3cnc4ccccc4c3)c12 [Example 79, 2-{1-(2-Aminoacetyl)piperidin-4-ylamino}-4-{3-isopropyl-4-(quinolin-3-yl)-1H-pyrazolo[3,4-b]pyridin-1-yl}benzamide] | 250 | 20 | 

More lines, in order of falling IC50 [1], values ahead:

IC50 [1] [nM] | IC50 (SK-BR-3 cells; Homo sapiens) [nM] | IC50 (SK-BR-3 cells) [nM] | SMILES
3050 | 670 |  | CC(C)c1nn(-c2ccc(C(N)=O)c(NCc3ccccc3)c2)c2nccc(-c3cnc4ccccc4c3)c12 [Example 20, 2-(Benzylamino)-4-{3-isopropyl-4-(quinolin-3-yl)-1H-pyrazolo[3,4-b]pyridin-1-yl}benzamide]
1500 | 280 |  | CC(C)c1nn(-c2ccc(C(N)=O)c(Nc3ccc(CN4CCCC4)cc3)c2)c2nccc(-c3cnc4ccccc4c3)c12 [Example 35, 4-{3-Isopropyl-4-(quinolin-3-yl)-1H-pyrazolo[3,4-b]pyridin-1-yl}-2-{4-(pyrrolidin-1-ylmethyl)phenylamino}benzamide]
1270 | 70 |  | CC(C)c1nn(-c2ccc(C(N)=O)c(NCC(C)(C)C)c2)c2nccc(-c3cnc4ccccc4c3)c12 [Example 25, 4-{3-Isopropyl-4-(quinolin-3-yl)-1H-pyrazolo[3,4-b]pyridin-1-yl}-2-(neopentylamino)benzamide]
1010 | 1280 |  | CC(C)c1nn(-c2ccc(C(N)=O)cc2Cl)c2nccc(-n3cnc(-c4ccc(C(N)=O)cc4)c3)c12 [Example 152, 4-{4-(4-(4-Carbamoylphenyl)-1H-imidazol-1-yl)-3-isopropyl-1H-pyrazolo[3,4-b]pyridin-1-yl}-3-chlorobenzamide]
690 | 180 |  | CC(C)c1nn(-c2ccc(C(N)=O)c(N[C@H]3CC[C@H](O)CC3)c2)c2nccc(-c3cnc4c(ccn4C)c3)c12 [Example 14, 2-(Trans-4-hydroxycyclohexylamino)-4-{3-isopropyl-4-(1-methyl-1H-pyrrolo[2,3-b]pyridin-5-yl)-1H-pyrazolo[3,4-b]pyridin-1-yl}benzamide]
520 | 690 |  | CC(C)c1nn(-c2ccc(C(N)=O)cc2Cl)c2nccc(-n3cnc(-c4cnn(C)c4)c3)c12 [Example 99, 3-Chloro-4-{3-isopropyl-4-(4-(1-methyl-1H-pyrazol-4-yl)-1H-imidazol-1-yl)-1H-pyrazolo[3,4-b]pyridin-1-yl}benzamide]
470 | 290 |  | Cc1cc(C(N)=O)ccc1-n1nc(C(C)C)c2c(-c3cnc4ccccc4c3)ccnc21 [Example 80, 4-{3-Isopropyl-4-(quinolin-3-yl)-1H-pyrazolo[3,4-b]pyridin-1-yl}-3-methylbenzamide]
430 |  | 70 | CC(C)c1nn(-c2ccc(C(N)=O)c(NC3CCC(O)CC3)c2)c2nccc(-n3cnc(-c4ccsc4)c3)c12 (stereo not shown) [Example 91]
420 | 410 |  | NC(=O)c1ccc(-n2nc(C(F)(F)F)c3c(-n4cnc(-c5cccnc5)c4)ccnc32)cc1N [Example 176, 2-Amino-4-{4-(4-(pyridin-3-yl)-1H-imidazol-1-yl)-3-(trifluoromethyl)-1H-pyrazolo[3,4-b]pyridin-1-yl}benzamide]
330 | 100 |  | CC(C)c1nn(-c2ccc(C(N)=O)c(NCCN3CCOCC3)c2)c2nccc(-c3cnc4ccccc4c3)c12 [Example 31, 4-{3-Isopropyl-4-(quinolin-3-yl)-1H-pyrazolo[3,4-b]pyridin-1-yl}-2-(2-morpholinoethylamino)benzamide]
200 | 140 |  | CC(C)Nc1cc(C(N)=O)ccc1-n1nc(C(C)C)c2c(-n3cnc(-c4cnn(C)c4)c3)ccnc21 [Example 120, 4-{3-Isopropyl-4-(4-(1-methyl-1H-pyrazol-4-yl)-1H-imidazol-1-yl)-1H-pyrazolo[3,4-b]pyridin-1-yl}-3-(isopropylamino)benzamide]
170 | 20 |  | CCc1nn(-c2ccc(C(N)=O)c(N[C@H]3CC[C@H](O)CC3)c2)c2nccc(-c3cnc4ccccc4c3)c12 [Example 3, 2-(Trans-4-hydroxycyclohexylamino)-4-{4-(quinolin-3-yl)-3-ethyl-1H-pyrazolo[3,4-b]pyridin-1-yl}benzamide]
160 | 150 |  | CCNc1c(C(N)=O)ccc(-n2nc(C(C)C)c3c(-n4cnc(-c5cnn(C)c5)c4)ccnc32)c1CC [Example 133, 3-Ethyl-2-(ethylamino)-4-{3-isopropyl-4-(4-(1-methyl-1H-pyrazol-4-yl)-1H-imidazol-1-yl)-1H-pyrazolo[3,4-b]pyridin-1-yl}benzamide]
130 | 30 |  | Cc1nn(-c2ccc(C(N)=O)c(N[C@H]3CC[C@H](O)CC3)c2)c2nccc(-c3cnc4ccccc4c3)c12 [Example 2, 2-(Trans-4-hydroxycyclohexylamino)-4-{4-(quinolin-3-yl)-3-methyl-1H-pyrazolo[3,4-b]pyridin-1-yl}benzamide]
120 | 80 |  | Cn1cc(-c2cn(-c3ccnc4c3c(C(F)(F)F)nn4-c3ccc(C(N)=O)cc3C3CC3)cn2)cn1 [Example 173, 3-(Cyclopropyl)-4-{4-(4-(1-methyl-1H-pyrazol-4-yl)-1H-imidazol-1-yl)-3-(trifluoromethyl)-1H-pyrazolo[3,4-b]pyridin-1-yl}benzamide]
110 | 70 |  | CC(C)Nc1cc(C(N)=O)ccc1-n1nc(C(F)(F)F)c2c(-n3cnc(-c4cnn(C)c4)c3)ccnc21 [Example 164, 3-(Isopropylamino)-4-{4-(4-(1-methyl-1H-pyrazol-4-yl)-1H-imidazol-1-yl)-3-(trifluoromethyl)-1H-pyrazolo[3,4-b]pyridin-1-yl}benzamide]
70 | 40 |  | CCCc1cc(C(N)=O)ccc1-n1nc(C(F)(F)F)c2c(-n3cnc(-c4cnn(C)c4)c3)ccnc21 [Example 156, 4-{4-(4-(1-Methyl-1H-pyrazol-4-yl)-1H-imidazol-1-yl)-3-(trifluoromethyl)-1H-pyrazolo[3,4-b]pyridin-1-yl}-3-propylbenzamide]
